{
  "source": "patent US20220387451A1",
  "about": "“AMORPHOUS PHARMACEUTICAL COMPOSITIONS OF ABIRATERONE ACETATE” (SUVEN LIFE SCIENCES LIMITED, priority 2019, published 2022)",
  "key": {"[1]": {"test": "Excretion after an oral dose of abiraterone acetate (literature)", "format": "in vivo", "conditions": "feces plus urine", "description": "Due to highly lipophilic nature and poor aqueous solubility in the gastrointestinal tract, the oral bioavailability of abiraterone acetate is limited. After an oral dose of abiraterone acetate, 88% of the administered drug gets excreted unchanged through feces, and another 5% is excreted in the urine (Ryan C J et al., J ClinOncol. 2010; 28(9):1481-1488). Therefore, >90% of the administered drug gets excreted and is not used for its intended treatment. […] As a result, Zytiga® must be taken on an empty stomach with water at least […] a meal. There is a need for developing new pharmaceutical compositions for abiraterone acetate that improve bioavailability in the fasted state to in turn reduce the food effect and overall variability in absorption."}, "[2]": {"conditions": "after an oral dose; cited from earlier work"}},
  "data": [
    {"smiles": "CC(=O)O[C@H]1CC[C@@]2(C)C(=CC[C@@H]3[C@@H]2CC[C@]2(C)C(c4cccnc4)=CC[C@@H]32)C1", "note": "[Abiraterone acetate]", "values": [
      {"measurement": "administered drug excreted", "setting": "[1]", "result": "> 90", "unit": "%"},
      {"measurement": "administered drug excreted in the urine", "setting": "[2]", "result": 5, "unit": "%"},
      {"measurement": "administered drug excreted unchanged through feces", "setting": "[2]", "result": 88, "unit": "%"}
    ]}
  ]
}
